Laboratory results taken from PMC7083880 (Nature Communications, 2020).

Experiments:
[1] = test system: Fluc-int-UGA construct in HEK293FT cells; assay: Amino-acid identification assay (mass spectrometry); assay type: cell-based, human; details: 25 µM DAP
Excerpt: To elucidate the molecular mechanism of DAP-promoted UGA readthrough, mass spectrometry was used to identify the amino acid incorporated at the PTC position into firefly luciferase synthesized from the Fluc-int-UGA construct. […] The luciferase protein was digested with […] to generate a PTC-position-containing peptide compatible with mass spectrometry analysis. Using this approach, we found only one amino acid, tryptophan, incorporated at the PTC position in the peptide of interest (Fig. 5a).
Firefly luciferase from HEK293FT cells transfected with the Fluc-int-UGA construct was immunoprecipitated and digested with trypsin. The MS/MS spectrum of the peptide containing the PTC position and the sequence determination are shown. […] Readthrough efficiency was determined by measuring luciferase activity in HeLa cells co-transfected with the firefly luciferase construct described in Fig. 1b and with increasing amounts of an expression vector for either FTSJ1 or CTU1 (0.5, 1, or 2 µg). […] A molecular weight marker is indicated to the left of each gel. p-values (p) were calculated using Student’s t-test. […]
Sixty million HEK293FT cells were transfected with 120 µg Fluc-int-UGA construct with CaCl2 in HBSS buffer. […] The immunoprecipitate was subjected to 10% SDS–PAGE and then firefly luciferase was detected by Coomassie staining. […]

[2] = test system: tRNA 2′-O-methylation in HeLa cells; assay: tRNA 2′-O-methylation analysis by RiboMethSeq; assay type: cell-based, human; details: 25 µM DAP, 24 h
Excerpt: Firefly luciferase from HEK293FT cells transfected with the Fluc-int-UGA construct was immunoprecipitated and digested with trypsin. The MS/MS spectrum of the peptide containing the PTC position and the sequence determination are shown. The upper red and blue sequences indicate the amino acids validated, respectively, by detection of Nter and Cter peptide fragments (b and y ion series). Peptide fragments y6 and y7 clearly identify tryptophan (W) at the PTC position. The black peaks correspond to non-attributed mass-to-charge ratio (m/z) values. […] Readthrough efficiency was determined by measuring luciferase activity in HeLa cells co-transfected with the firefly luciferase construct described in Fig. 1b and with increasing amounts of an expression vector for either FTSJ1 or CTU1 (0.5, 1, or 2 µg). The empty expression vector (E.v.) was used as control. […] The experiment was performed twice and the results of both experiments (Exp1 and Exp2) are shown. c Western blot analysis of FTSJ1 and CTU1. d 2′-O-methylation analysis of tRNA^Trp, tRNA^SER, and tRNA^GLN by RiboMethSeq. […] A molecular weight marker is indicated to the left of each gel. p-values (p) were calculated using Student’s t-test. Source data are provided as a Source Data file.
HeLa cells were incubated with DMSO or DAP before extraction of small RNAs (which include tRNAs). RiboMethSeq analysis of human tRNAs was then performed. […] Although the human targets of FTSJ1 remain poorly characterized, modification of Cm34 in tRNA^Trp has been attributed to FTSJ1 (ref. [41]). […] This is consistent with DAP-dependent inhibition of FTSJ1 activity. The third hit was 2′-O-methylation of tRNA^Ser at position Gm18, attributed to TARBP1 activity.
The detailed protocol and a description of the RiboMethSeq assay are provided elsewhere.

[3] = test system: Calu-6 cell tumors in nude mice; assay: In vivo established Calu-6 tumors: tumor size and p53 western blot; parameters: species or system mouse
Method: For each experimental condition, 7 mice were used. b Fourteen nude mice were injected with Calu-6 cells to promote tumor development. […] The arrow indicates the starting time of the exposure to DMSO or DAP. For each experimental condition, 7 mice were used. […] GAPDH was used as loading control. A molecular weight marker is indicated to the left of the gel. The results presented in this figure are representative of two independent experiments. p-values (p) were calculated using Student’s t-test. Source data are provided as a Source Data file.
(§1) Next, the capacity of DAP to correct UGA nonsense mutations in vivo was assessed in a mouse model. Four-week-old immunodeficient nude mice were injected with an identical number of Calu-6 cells carrying a UGA nonsense mutation in the TP53 gene, of HCC-GR6 cells having a wild-type TP53 gene or of p53-null 4T1 cells. […] The slower growth of Calu-6-cell-derived tumors in DAP-treated mice is thus likely due to rescue of p53 protein synthesis in these tumors, as expected on the basis of our cell culture experiments and as observed after western-blotting applied to protein extracts of tumors from DAP-treated mice (Supplementary Fig. 8B). Because of the small size of the Calu-6 tumors in DAP-treated mice and thus the high probability of collecting mouse cells upon tumor excision, quantitation of p53 was done in another experiment.
To initiate tumor growth, 6-week-old nude mice received subcutaneously 10 million cells suspended in PBS. […] Tumors were measured three times weekly for 5 weeks to determine the tumor volume by the following formula: l (mm) × L (mm) × L (mm). The tumors were then collected and a fraction was used for western blot analysis after protein extraction. All in vivo experiments complied with all relevant ethical regulations for animal testing and research and were authorized by the Ethic Committee 075 under the number 12971-2018010815336092.

[4] = test system: HCC-GR6 cell tumors (wild-type TP53) in nude mice; assay: In vivo tumor growth, HCC-GR6 cells in nude mice; parameters: species or system mouse; details: force-fed daily, 5 weeks
Method: as §1
To initiate tumor growth, 6-week-old nude mice received subcutaneously 10 million cells suspended in PBS. […] Tumors were measured three times weekly for 5 weeks to determine the tumor volume by the following formula: l (mm) × L (mm) × L (mm). […]
The mice were exposed to DMSO or DAP for about five weeks and tumor size was measured three times weekly and plotted on the graph. […]
(B) Western blot analysis of p53 protein in the Calu-6-cell tumors of the seven DMSO-exposed and seven DAP-exposed mice. […] Error bar= S.D., p-values (p) were calculated using Student's t-test. […]

## Nc1nc(N)c2[nH]cnc2n1 [DAP, 2,6-diaminopurine]
[1]
  Amino acid incorporated at the PTC position: tryptophan
[2]
  2′-O-methylation of tRNA^Trp at position 34: Notably affected
  Cm32 methylation of tRNA^Gln: reduced Cm32 methylation
  Level of tRNA 2′-O-methylation: significantly lower for three tRNAs
[3]; measure 1 of 10 (time not given), DAP started when tumors about 0.4 cm^3
  Tumor size, average of 7 mice: 0.002 cm^3
[3]; measure 2 of 10 (time not given)
  Tumor size, average of 7 mice: 0.02357 cm^3
[3]; measure 3 of 10 (time not given)
  Tumor size, average of 7 mice: 0.05086 cm^3
[3]; measure 4 of 10 (time not given)
  Tumor size, average of 7 mice: 0.07071 cm^3
[3]; measure 5 of 10 (time not given)
  Tumor size, average of 7 mice: 0.1153 cm^3
[3]; measure 6 of 10 (time not given)
  Tumor size, average of 7 mice: 0.1741 cm^3
[3]; measure 7 of 10 (time not given)
  Tumor size, average of 7 mice: 0.2344 cm^3
[3]; measure 8 of 10 (time not given)
  Tumor size, average of 7 mice: 0.3563 cm^3
[3]; measure 9 of 10 (time not given)
  Tumor size, average of 7 mice: 0.4617 cm^3
[3]; measure 10 of 10 (time not given)
  Tumor size, average of 7 mice: 0.5429 cm^3
[4]
  Tumor growth vs DMSO, in words: no significant difference in tumor growth
